Experimental data taken from patent US10934253B2, “Therapeutic compounds and methods” (UNIVERSITY OF TASMANIA, priority 2017, dated 2021).

System: LHON model induced by intravitreal rotenone in C57BL/6 mouse
Assay: Leber's hereditary optic neuropathy (LHON) mouse model, optomotor response
Assay type: in vivo
Conditions: rotenone in left eye, 200 mg/kg orally in food
Method: FIG. 5: Efficacy of representative compounds of Formula (I) in leber's hereditary optic neuropathy (LHON) mouse model. LHON induced by rotenone injection in the left eye (5 μM) in C57BL/6 mouse model (Refer to Heitz, F. D et al. (2012). PLoS One., 7(9), e45182). […] Representative compounds (UTA 37 and UTA 77) and idebenone administered at 200 mg/kg over the observation period.
LHON model was induced by intravitreal injection of rotenone into the left eye in C57BL/6 mouse model as described by Heitz et al. 2012. Representative compounds (UTA 37 and UTA 77) and idebenone administered at 200 mg/kg over the observation period. Vision loss was measured by assessing number of head turns.
C57BL/6 mice (male, 8-11 weeks of age, average body weight≈25 g) were used in accordance with the Australian code for the use of animals for scientific purposes and under the required animal ethics approval from the University of Tasmania (UTAS) Animal Ethics Committee (Approval number A0016080). Animals were given at least seven days to acclimatise to the animal facility to reduce stress induced by transportation before being used for behavioural testing. All mice were supplied orally with test compounds by mixing test compounds into individual daily food portions as described previously (Heitz, F. D. et al. (2012). PLoS One., 7(9), e45182). […]

## COc1ccc(CCNC(=O)CCCC2=C(C)C(=O)c3ccccc3C2=O)cc1OC [UTA #77, N-(3,4-dimethoxyphenethyl)-4-(3-methyl-1,4-naphthoquinone-2-yl)butanamide]
  Protection of visual acuity (head turns, optomotor response; in words): Statistically significant protection of visual acuity
